The values that follow come from US20170326125A1, “MULTISUBSTITUTED AROMATIC COMPOUNDS AS INHIBITORS OF THROMBIN” (VERSEON CORPORATION, priority 2016, published 2017).

Structures are written as SMILES.

This test has as its target T1, Human thrombin (Homo sapiens, UniProt P00734).
T1 construct: purchased Haematologic Technologies Inc
As to the kind of experiment: Inhibition of the protease activity of thrombin (chromogenic substrate S-2238). The test is classed as biochemical. Conditions: Table C; 3 nM thrombin, 125 μM S-2238, 10 min pre-incubation, RT.
For the compound `O=C(Cc1ccccc1)n1nc(-c2ccco2)nc1NCc1ccccc1` [Cmpd 346, 1-[5-(benzylamino)-3-(furan-2-yl)-1H-1,2,4-triazol-1-yl]-2-phenylethan-1-one], the IC50 was under 100 nM. In turn, `O=C(CCc1ccccc1)n1nc(-c2ccco2)nc1NCc1ccccc1` [Cmpd 347, 1-[5-(benzylamino)-3-(furan-2-yl)-1H-1,2,4-triazol-1-yl]-3-phenylpropan-1-one] displayed an IC50 of under 100 nM. For `CCC(=O)n1nc(-c2ccco2)nc1NCc1ccccc1` [Cmpd 348, 1-[5-(benzylamino)-3-(furan-2-yl)-1H-1,2,4-triazol-1-yl]propan-1-one] the value was under 100 nM; for `CC(C)C(=O)n1nc(-c2cccnc2)nc1NCc1ccccc1` [Cmpd 349, 1-[5-(benzylamino)-3-(pyridin-3-yl)-1H-1,2,4-triazol-1-yl]-2-methylpropan-1-one], under 100 nM. `CC(C)CC(=O)n1nc(-c2cccnc2)nc1NCc1ccccc1` [Cmpd 350, 1-[5-(benzylamino)-3-(pyridin-3-yl)-1H-1,2,4-triazol-1-yl]-3-methylbutan-1-one] gave a half-inhibitory concentration (IC50) of under 100 nM. In turn, `CCC(=O)n1nc(-c2cccnc2)nc1NCc1ccccc1` [Cmpd 351, 1-[5-(benzylamino)-3-(pyridin-3-yl)-1H-1,2,4-triazol-1-yl]propan-1-one] had an IC50 of under 100 nM. For `CCC(=O)n1nc(-c2cccs2)nc1NCc1ccccc1` [Cmpd 352, 1-[5-(benzylamino)-3-(thiophen-2-yl)-1H-1,2,4-triazol-1-yl]propan-1-one] the value was under 100 nM; for `O=C(Cc1ccccc1)n1nc(-c2ccccc2)nc1NCc1ccccc1` [Cmpd 353, 1-[5-(benzylamino)-3-phenyl-1H-1,2,4-triazol-1-yl]-2-phenylethan-1-one], under 100 nM. For `O=C(CCc1ccccc1)n1nc(-c2ccccc2)nc1NCc1ccccc1` [Cmpd 354, 1-[5-(benzylamino)-3-phenyl-1H-1,2,4-triazol-1-yl]-3-phenylpropan-1-one] the value was over 1000 nM.

With `CCC(=O)n1nc(-c2ccccc2)nc1NCc1ccccc1` [Cmpd 355, 1-[5-(benzylamino)-3-phenyl-1H-1,2,4-triazol-1-yl]propan-1-one], the IC50 was in the range of 100 to 1000 nM. `O=C(c1ccccc1)n1nc(-c2cccnc2)nc1NCc1ccc(F)cc1` [Cmpd 356, 1-benzoyl-N-[(4-fluorophenyl)methyl]-3-(pyridin-3-yl)-1H-1,2,4-triazol-5-amine] displayed an IC50 of under 100 nM. For `COc1ccc(CNc2nc(-c3cccnc3)nn2C(=O)c2ccccc2)cc1` [Cmpd 357, 1-benzoyl-N-[(4-methoxyphenyl)methyl]-3-(pyridin-3-yl)-1H-1,2,4-triazol-5-amine] the value was 100 to 1000 nM; for `O=C(c1ccccc1)n1nc(-c2ccco2)nc1NCc1ccccc1` [Cmpd 358, 1-benzoyl-N-benzyl-3-(furan-2-yl)-1H-1,2,4-triazol-5-amine], under 100 nM; for `O=C(c1ccccc1)n1nc(-c2ccccc2)nc1NCc1ccccc1` [Cmpd 359, 1-benzoyl-N-benzyl-3-phenyl-1H-1,2,4-triazol-5-amine], under 100 nM. For `CS(=O)(=O)n1nc(C(=O)N2CCOCC2)nc1N` [Cmpd 360, 1-methanesulfonyl-3-[(morpholin-4-yl)carbonyl]-1H-1,2,4-triazol-5-amine] the value was over 1000 nM; for `CC(C)C(=O)n1nc(-c2cccnc2)nc1NCc1ccco1` [Cmpd 361, 1-5-[(furan-2-ylmethyl)amino]-3-(pyridin-3-yl)-1H-1,2,4-triazol-1-yl-2-methylpropan-1-one], under 100 nM. Regarding `CCCC(=O)n1nc(-c2cccnc2)nc1NCc1ccco1` [Cmpd 362, 1-5-[(furan-2-ylmethyl)amino]-3-(pyridin-3-yl)-1H-1,2,4-triazol-1-ylbutan-1-one], the IC50 is under 100 nM. For `CC(=O)n1nc(-c2cccnc2)nc1NCc1ccco1` [Cmpd 363, 1-5-[(furan-2-ylmethyl)amino]-3-(pyridin-3-yl)-1H-1,2,4-triazol-1-ylethan-1-one] the value was under 100 nM; for `CCC(=O)n1nc(-c2cccnc2)nc1NCc1ccco1` [Cmpd 364, 1-5-[(furan-2-ylmethyl)amino]-3-(pyridin-3-yl)-1H-1,2,4-triazol-1-ylpropan-1-one], 100 to 1000 nM; for `O=C(Nc1n[nH]c(-c2ccco2)n1)c1ccccc1F` [Cmpd 365, 2-fluoro-N-[5-(furan-2-yl)-1H-1,2,4-triazol-3-yl]benzamide], over 1000 nM.

For `Cc1ccc(CNc2nc(-c3cccnc3)nn2C(=O)C(C)C)cc1` [Cmpd 366, 2-methyl-1-(5-[(4-methylphenyl)methyl]amino-3-(pyridin-3-yl)-1H-1,2,4-triazol-1-yl)propan-1-one], the IC50 is under 100 nM. `COc1ccccc1C(=O)n1nc(-c2ccco2)nc1SC` [Cmpd 367, 3-(furan-2-yl)-1-[(2-methoxyphenyl)carbonyl]-5-(methylsulfanyl)-1H-1,2,4-triazole] displayed an IC50 of under 100 nM. For the compound `O=C(c1cccnc1)n1nc(-c2ccco2)nc1NCc1cccs1` [Cmpd 368, 3-(furan-2-yl)-1-[(pyridin-3-yl)carbonyl]-N-(thiophen-2-ylmethyl)-1H-1,2,4-triazol-5-amine], the IC50 is under 100 nM. Consider `CS(=O)(=O)n1nc(-c2ccco2)nc1NCc1cccs1` [Cmpd 369, 3-(furan-2-yl)-1-methanesulfonyl-N-(thiophen-2-ylmethyl)-1H-1,2,4-triazol-5-amine], for which the IC50 was over 1000 nM. With `COc1ccccc1CNc1nc(-c2ccco2)nn1C(=O)c1ccc(C)cc1` [Cmpd 370, 3-(furan-2-yl)-N-[(2-methoxyphenyl)methyl]-1-[(4-methylphenyl)carbonyl]-1H-1,2,4-triazol-5-amine], the IC50 lay in the range of 100 to 1000 nM. For the compound `COc1ccc(CNc2nc(-c3ccco3)nn2C(=O)c2ccc(C)cc2)cc1` [Cmpd 371, 3-(furan-2-yl)-N-[(4-methoxyphenyl)methyl]-1-[(4-methylphenyl)carbonyl]-1H-1,2,4-triazol-5-amine], the concentration for half-maximal inhibition (IC50) was 100 to 1000 nM. Compound `O=C(c1cccnc1)n1nc(-c2cccnc2)nc1NCc1cccs1` [Cmpd 372, 3-(pyridin-3-yl)-1-[(pyridin-3-yl)carbonyl]-N-(thiophen-2-ylmethyl)-1H-1,2,4-triazol-5-amine] yielded an IC50 of 100 to 1000 nM. For `Nc1nc(-c2cccs2)n[nH]1` [Cmpd 373, 3-(thiophen-2-yl)-1H-1,2,4-triazol-5-amine] the value was over 1000 nM; for `Cc1ccc(CNc2nc(-c3cccnc3)nn2C(=O)CC(C)C)cc1` [Cmpd 374, 3-methyl-1-(5-[(4-methylphenyl)methyl]amino-3-(pyridin-3-yl)-1H-1,2,4-triazol-1-yl)butan-1-one], under 100 nM; for `CC(C)CC(=O)n1nc(-c2cccnc2)nc1NCc1cccs1` [Cmpd 375, 3-methyl-1-[3-(pyridin-3-yl)-5-[(thiophen-2-ylmethyl)amino]-1H-1,2,4-triazol-1-yl]butan-1-one], under 100 nM. As for `CCOC(=O)n1nc(-c2ccc(Cl)cc2)cc1N` [Cmpd 376, ethyl 5-amino-3-(4-chlorophenyl)-1H-pyrazole-1-carboxylate], the IC50 is over 1000 nM. For `COC(=O)c1nc(NC(=O)c2ccc(Cl)cc2Cl)n[nH]1` [Cmpd 377, methyl 3-[(2,4-dichlorobenzene)amido]-1H-1,2,4-triazole-5-carboxylate] the value was over 1000 nM. Turning to `COC(=O)c1n[nH]c(NC(=O)C(C)(C)C)n1` [Cmpd 378, methyl 5-(2,2-dimethylpropanamido)-1H-1,2,4-triazole-3-carboxylate], the IC50 was over 1000 nM. In the case of `COC(=O)c1n[nH]c(NC(=O)c2ccoc2C)n1` [Cmpd 379, methyl 5-(2-methylfuran-3-amido)-1H-1,2,4-triazole-3-carboxylate], the IC50 was over 1000 nM. For `COC(=O)c1n[nH]c(NC(=O)c2ccccc2C)n1` [Cmpd 380, methyl 5-[(2-methylbenzene)amido]-1H-1,2,4-triazole-3-carboxylate] the value was over 1000 nM.

Consider `COC(=O)c1n[nH]c(NC2=NCCCCC2)n1` [Cmpd 381, methyl 5-[(3,4,5,6-tetrahydro-2H-azepin-7-yl)amino]-1H-1,2,4-triazole-3-carboxylate], for which the 50% inhibitory concentration (IC50) is over 1000 nM. For `COC(=O)c1n[nH]c(NC(=O)c2cccc(C)c2)n1` [Cmpd 382, methyl 5-[(3-methylbenzene)amido]-1H-1,2,4-triazole-3-carboxylate] the value was over 1000 nM; for `COC(=O)c1nnc(NC(=O)c2ccc(Br)cc2)[nH]1` [Cmpd 383, methyl 5-[(4-bromobenzene)amido]-1H-1,2,4-triazole-3-carboxylate], over 1000 nM; for `COC(=O)c1nnc(NC(=O)c2ccc(F)cc2)[nH]1` [Cmpd 385, methyl 5-[(4-fluorobenzene)amido]-4H-1,2,4-triazole-3-carboxylate], 100 to 1000 nM. For `COC(=O)c1n[nH]c(N=Cc2cccnc2)n1` [Cmpd 387, methyl 5-[(pyridin-3-ylmethylidene)amino]-1H-1,2,4-triazole-3-carboxylate], the IC50 is over 1000 nM. The compound `COC(=O)c1n[nH]c(NC(=O)CCc2ccc(C)cc2)n1` [Cmpd 388, methyl 5-[3-(4-methylphenyl)propanamido]-1H-1,2,4-triazole-3-carboxylate] displayed an IC50 of over 1000 nM.

The compound `O=C(Nc1ccc(Cl)cc1Cl)c1n[nH]c(Cn2cncn2)n1` [Cmpd 390, N-(2,4-dichlorophenyl)-5-(1H-1,2,4-triazol-1-ylmethyl)-4H-1,2,4-triazole-3-carboxamide] displayed an IC50 of over 1000 nM. For `O=C(Nc1ccccc1Cl)c1nc(-n2cnnc2)n[nH]1` [Cmpd 391, N-(2-chlorophenyl)-3-(4H-1,2,4-triazol-4-yl)-1H-1,2,4-triazole-5-carboxamide], the IC50 was over 1000 nM.

The compound `O=C(Nc1ccc(Br)cc1)c1nc(-n2cnnc2)n[nH]1` [Cmpd 392, N-(4-bromophenyl)-3-(4H-1,2,4-triazol-4-yl)-1H-1,2,4-triazole-5-carboxamide] displayed an IC50 of over 1000 nM. For `CCOc1ccc(NC(=O)c2nc(-n3cnnc3)n[nH]2)cc1` [Cmpd 393, N-(4-ethoxyphenyl)-3-(4H-1,2,4-triazol-4-yl)-1H-1,2,4-triazole-5-carboxamide] the value was over 1000 nM.
